Values of other authors, collected in patent publication US20110236503A1, “Topical Skincare Composition” (COSMALABS INTERNATIONAL, LLC, priority 2010, published 2011).

Conditions: topical composition having 5% benzoyl peroxide vs erythromycin and clindamycin formulations

SMILES: O=C(OOC(=O)c1ccccc1)c1ccccc1 [benzoyl peroxide, Benzoyl peroxide]
- effectiveness for acne compared with other topical antimicrobials: at least as effective for acne as erythromycin and clindamycin formulations
